Source: patent US20060069132A1, “Azolecarboxamide herbicides” (priority 2004, published 2006)

How the values were obtained:
cocklebur = assay: Test B pre-/postemergence herbicide test; assay type: in vivo, Xanthium strumarium
Procedure, shortened: (§1)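 Species tested were Echinochloa crus-galli, Ipomoea coccinea, Xanthium strumarium and Oryza sativa, treated both before emergence and at the 1- to 4-leaf stage; rice and barnyardgrass were also tested under flooding at 2 leaves. Greenhouse incubation lasted 13–15 days before visual 0–100 scoring.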

blackgrass = assay: Test B postemergence herbicide test; assay type: in vivo, Alopecurus myosuroides; details: scale 0 (no effect) to 100 (complete control)
Procedure, shortened: (§2)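 Plants grow to 1- to 4-leaf stage (2–18 cm) for postemergence spraying, or to 2-leaf stage for the paddy test. Formulated compound is applied. Greenhouse holding lasts 13–15 days. Response is scored visually relative to controls, 0 no effect to 100 complete control; a dash means no result.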

corn = assay: Test B pre-/postemergence herbicide test; assay type: in vivo, Zea mays
Procedure, shortened: (§3)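 Pre: seeds sown, then sprayed. Post: 1–4-leaf plants (2–18 cm) sprayed at the same time. Paddy: flooded, treated at 2-leaf stage. Formulation: non-phytotoxic solvent with surfactant. Greenhouse 13–15 days; visual 0–100 score relative to controls.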

giant foxtail [1] = assay: Test A pre-/postemergence herbicide test; assay type: in vivo, Setaria faberi; details: for Plant response rating, Foxtail, Giant: Postemergence; for Foxtail, Giant plant response rating: Preemergence
Procedure, shortened: (§4)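 Plants are held in greenhouse about ten days after treatment, then compared with untreated controls and scored 0 (no effect) to 100 (complete control). Preemergence dosing is a directed soil spray on sown sandy loam; postemergence dosing is spray to runoff at 2–10 cm height.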

velvetleaf [2] = assay: Test B pre-/postemergence herbicide test; assay type: in vivo, Abutilon theophrasti
Procedure, shortened: as §3

velvetleaf [3] = assay: Test A pre-/postemergence herbicide test; assay type: in vivo, Abutilon theophrasti; details: for Velvetleaf plant response rating: Preemergence, visual rating, 0 to 100 scale (0 no effect, 100 complete control)
Procedure, shortened: as §4

pigweed = assay: Test B pre-/postemergence herbicide test; assay type: in vivo, Amaranthus retroflexus
Procedure, shortened: as §3

[4] = test system: small flower umbrella sedge; assay: Test B flooded paddy test; assay type: in vivo, Cyperus difformis; details: 1000 g ai/ha, visual rating, scale 0 to 100 (0 no effect, 100 complete control), 13 to 15 days
Procedure, shortened: as §2

rice [5] = assay: Test B pre-/postemergence herbicide test; assay type: in vivo, Oryza sativa; details: preemergence, 125 g ai/ha; 0 to 100 scale, 0 is no effect, 100 is complete control
Procedure, shortened: as §3

Surinam grass = assay: Test B pre-/postemergence herbicide test; assay type: in vivo, Urochloa decumbens
Procedure, shortened: as §3

barnyardgrass [6] = assay: Test A pre-/postemergence herbicide test; assay type: in vivo, Echinochloa crus-galli; details: for Plant response rating, Barnyardgrass: Postemergence; for Barnyardgrass plant response rating: Preemergence
Procedure, shortened: as §4

wheat = assay: Test B postemergence herbicide test; assay type: in vivo, Triticum aestivum; parameters: key to Wheat plant response rating: 0 = no effect, 100 = complete control; details: scale 0 (no effect) to 100 (complete control)
Procedure, shortened: (§5)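 After treating 2-leaf paddy plants or 2–18 cm postemergence plants (1 to 4 leaves) with formulated chemical, researchers kept them in a greenhouse for 13–15 days. Effects were judged visually versus controls: 0 indicates none, 100 total control.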

morningglory [7] = assay: Test A pre-/postemergence herbicide test; assay type: in vivo, Ipomoea spp.; details: for Plant response rating, Morningglory: Postemergence; for Morningglory plant response rating: Preemergence
Procedure, shortened: as §4

lambsquarters = assay: Test B pre-/postemergence herbicide test; assay type: in vivo, Chenopodium album
Procedure, shortened: as §3

large crabgrass [8] = assay: Test A pre-/postemergence herbicide test; assay type: in vivo, Digitaria sanguinalis; details: for Plant response rating, Crabgrass, Large: Postemergence; for Crabgrass, Large plant response rating: Preemergence
Procedure, shortened: as §4

morningglory [9] = assay: Test B pre-/postemergence herbicide test; assay type: in vivo, Ipomoea coccinea
Procedure, shortened: as §1

rice [10] = assay: Test B flooded paddy test; assay type: in vivo, Oryza sativa; details: 1000 g ai/ha, visual rating, scale 0 to 100 (0 no effect, 100 complete control), 13 to 15 days
Procedure, shortened: as §2

ducksalad = assay: Test B flooded paddy test; assay type: in vivo, Heteranthera limosa; details: 1000 g ai/ha, visual rating, scale 0 to 100 (0 no effect, 100 complete control), 13 to 15 days
Procedure, shortened: as §2

wild oat = assay: Test B postemergence herbicide test; assay type: in vivo, Avena fatua; details: scale 0 (no effect) to 100 (complete control)
Procedure, shortened: as §5

giant foxtail [11] = assay: Test B pre-/postemergence herbicide test; assay type: in vivo, Setaria faberi
Procedure, shortened: as §3

large crabgrass [12] = assay: Test B pre-/postemergence herbicide test; assay type: in vivo, Digitaria sanguinalis
Procedure, shortened: as §3

redroot pigweed = assay: Test A pre-/postemergence herbicide test; assay type: in vivo, Amaranthus retroflexus; details: for Plant response rating, Pigweed: Postemergence; for Pigweed plant response rating: Preemergence
Procedure, shortened: as §4

barnyardgrass [13] = assay: Test B pre-/postemergence herbicide test; assay type: in vivo, Echinochloa crus-galli
Procedure, shortened: as §1

barnyardgrass [14] = assay: Test B flooded paddy test; assay type: in vivo, Echinochloa crus-galli; details: 1000 g ai/ha, visual rating, scale 0 to 100 (0 no effect, 100 complete control), 13 to 15 days
Procedure, shortened: as §2

[15] = Postemergence, 500 g ai/ha, visual rating after 13 to 15 days, scale 0 (no effect) to 100 (complete control)
[16] = Preemergence, 500 g ai/ha, scale 0 to 100
[17] = postemergence, 125 g ai/ha, visual rating, scale 0 (no effect) to 100 (complete control)
[18] = preemergence, 125 g ai/ha, 0 to 100 scale, 0 is no effect, 100 is complete control
[19] = Postemergence, 500 g ai/ha, visual rating after 13 to 15 days
[20] = postemergence, 125 g ai/ha, visual rating
[21] = 500 g ai/ha, 0 to 100 scale, 0 no effect, 100 complete control
[22] = 2000 g ai/ha, 0 to 100 scale, 0 no effect, 100 complete control
[23] = 500 g ai/ha, visual rating, 0 to 100 scale (0 no effect, 100 complete control)

CCn1nc(C(C)(C)C)cc1C(=O)Nc1cccc2c1CCN(C1CCCC1)C2=O [Compound 66]
Plant response rating, Cocklebur (cocklebur; [15]): 30
Cocklebur plant response rating (cocklebur; [16]): 0
Cocklebur plant response rating (cocklebur; [17]): 20
Plant response rating, Cocklebur (cocklebur; [18]): 0
Plant response rating, Blackgrass (blackgrass; [19]): 20
Blackgrass plant response rating (blackgrass; [20]): 0
Plant response rating, Corn (corn; [15]): 20
Corn plant response rating (corn; [16]): 0
Corn plant response rating (corn; [17]): 10
Plant response rating, Corn (corn; [18]): 0
Plant response rating, Foxtail, Giant (giant foxtail [1]; [21]): 0
Plant response rating, Foxtail, Giant (giant foxtail [1]; [22]): 0
Foxtail, Giant plant response rating (giant foxtail [1]; [23]): 0
Foxtail, Giant plant response rating (giant foxtail [1]; [22]): 0
Plant response rating, Velvetleaf (velvetleaf [2]; [15]): 10
Velvetleaf plant response rating (velvetleaf [2]; [17]): 10
Plant response rating, Velvetleaf (velvetleaf [2]; [18]): 0
Plant response rating, Velvetleaf (velvetleaf [3]; Postemergence, 2000 g ai/ha, 0 to 100 scale, 0 no effect, 100 complete control): 0
Velvetleaf plant response rating (velvetleaf [3]; 500 g ai/ha): 0
Velvetleaf plant response rating (velvetleaf [3]; 2000 g ai/ha): 0
Plant response rating, Pigweed (pigweed; [15]): 30
Pigweed plant response rating (pigweed; [17]): 20
Plant response rating, Pigweed (pigweed; [18]): 0
Sedge, Umbrella plant response rating [4]: 10
Plant response rating, Rice (rice [5]): 0
Plant response rating, Surinam Grass (Surinam grass; [15]): 10
Surinam Grass plant response rating (Surinam grass; [17]): 10
Plant response rating, Surinam Grass (Surinam grass; [18]): 0
Plant response rating, Barnyardgrass (barnyardgrass [6]; [21]): 0
Plant response rating, Barnyardgrass (barnyardgrass [6]; [22]): 0
Barnyardgrass plant response rating (barnyardgrass [6]; [23]): 0
Barnyardgrass plant response rating (barnyardgrass [6]; [22]): 20
Plant response rating, Wheat (wheat; [19]): 10
Wheat plant response rating (wheat; [20]): 0
Plant response rating, Morningglory (morningglory [7]; [21]): 0
Plant response rating, Morningglory (morningglory [7]; [22]): 0
Morningglory plant response rating (morningglory [7]; [23]): 0
Morningglory plant response rating (morningglory [7]; [22]): 0
Plant response rating, Lambsquarters (lambsquarters; [15]): 70
Lambsquarters plant response rating (lambsquarters; [17]): 60
Plant response rating, Lambsquarters (lambsquarters; [18]): 0
Plant response rating, Crabgrass, Large (large crabgrass [8]; [21]): 0
Plant response rating, Crabgrass, Large (large crabgrass [8]; [22]): 0
Crabgrass, Large plant response rating (large crabgrass [8]; [23]): 0
Crabgrass, Large plant response rating (large crabgrass [8]; [22]): 0
Plant response rating, Morningglory (morningglory [9]; [15]): 20
Morningglory plant response rating (morningglory [9]; [17]): 20
Plant response rating, Morningglory (morningglory [9]; [18]): 0
Rice plant response rating (rice [10]): 0
Ducksalad plant response rating (ducksalad): 0
Plant response rating, Oat, Wild (wild oat; [19]): 10
Oat, Wild plant response rating (wild oat; [20]): 10
Plant response rating, Foxtail, Giant (giant foxtail [11]; [15]): 20
Foxtail, Giant plant response rating (giant foxtail [11]; [16]): 10
Foxtail, Giant plant response rating (giant foxtail [11]; [17]): 0
Plant response rating, Foxtail, Giant (giant foxtail [11]; [18]): 0
Plant response rating, Crabgrass, Large (large crabgrass [12]; [15]): 10
Crabgrass, Large plant response rating (large crabgrass [12]; [16]): 10
Crabgrass, Large plant response rating (large crabgrass [12]; [17]): 0
Plant response rating, Crabgrass, Large (large crabgrass [12]; [18]): 0
Plant response rating, Pigweed (redroot pigweed; [21]): 10
Plant response rating, Pigweed (redroot pigweed; [22]): 10
Pigweed plant response rating (redroot pigweed; [23]): 0
Pigweed plant response rating (redroot pigweed; [22]): 0
Plant response rating, Barnyardgrass (barnyardgrass [13]; [15]): 10
Barnyardgrass plant response rating (barnyardgrass [13]; [16]): 30
Barnyardgrass plant response rating (barnyardgrass [13]; [17]): 0
Plant response rating, Barnyardgrass (barnyardgrass [13]; [18]): 0
Barnyardgrass plant response rating (barnyardgrass [14]): 10
